Measured values: paper PMC4620497 (Scientific Reports, 2015)

How the values were obtained:
PAK2 = target: T1, PAK2 (Homo sapiens, UniProt Q13177); set-up: method as in earlier work; details: Table S1; cited from earlier work
T1 construct: purchased DiscoveRx KINOMEscan (Ambit Biosciences)

SLK = target: T2, SLK (Homo sapiens, UniProt Q9H2G2); assay: KINOMEscan panel screen; format: binding; details: read-out: Percent Control(%)
T2 construct: purchased DiscoveRx KINOMEscan (Ambit Biosciences)

[1] = target: T3, ABL1(F317I)-nonphosphorylated (Homo sapiens, UniProt P00519, F317I); assay: KINOMEscan panel screen; format: binding; details: read-out: Percent Control(%)
T3 construct: purchased DiscoveRx KINOMEscan (Ambit Biosciences)

VRK2 = target: T4, VRK2 (Homo sapiens, UniProt Q86Y07); assay: KINOMEscan panel screen; format: binding; details: read-out: Percent Control(%)
T4 construct: purchased DiscoveRx KINOMEscan (Ambit Biosciences)

ULK2 = target: T5, ULK2 (Homo sapiens, UniProt Q8IYT8); assay: KINOMEscan panel screen; format: binding; details: read-out: Percent Control(%)
T5 construct: purchased DiscoveRx KINOMEscan (Ambit Biosciences)

[2] = system: phosphorylation of FLT3, STAT5 and Erk1/2 in MV4-11 cells; assay: Western blot of FLT3 signaling in MV4-11 cells; format: cell-based, human; details: 1 h treatment
Procedure: Western blot analysis was performed as previously described[43]. […] Quantitative analysis of the protein level was performed with NIH image analysis software, ImageJ (normalized relative to the vehicle control).
The phosphorylation levels of FLT3 and downstream signal proteins were detected used the same method as that in panel a.

B16 = assay: MTT cell viability assay; details: Mus musculus, B16, 72 h
[3] = system: β-catenin target genes in primary AML cells; assay: Real-time qPCR of β-catenin target genes in primary AML cells; format: cell-based, human
Source text: To confirm the Wnt/β-catenin inhibition effect of SKLB-677, we examined the protein levels of total β-catenin and non-phospho-β-catenin (active β-catenin); the non-phospho β-catenin other than the phosphorylated β-catenin enters the cell nucleus and plays the gene regulation function. […] We further examined the expressions of β-catenin target genes MYC, CCND1, and NKD1 by real-time qPCR. […] Finally, the real-time qPCR assays were used again to inspect the influence of SKLB-677 on Wnt/β-catenin signaling in the primary AML cells.
Total RNA of cell samples and tumor samples was extracted using RNAsimple total RNA kit (TIANGEN) according to the manufacturer’s instructions. cDNA was generated using the iScript^TMcDNA Synthesis Kit (Bio-Rad), and the RT-PCR reactions were performed using SsoAdvanced SYBR Green Supermix (Bio-Rad). The reaction consisted of 40 cycles of denaturation at 95 °C for 5 s and annealing/extension for 30s at 60 °C. The primer sequences are listed in Supplementary Table S7.

ANKK1 = target: T6, ANKK1 (Homo sapiens, UniProt Q8NFD2); assay: KINOMEscan panel screen; format: binding; details: read-out: Percent Control(%)
T6 construct: purchased DiscoveRx KINOMEscan (Ambit Biosciences)

[4] = system: MYC, CCND1, NKD1 transcripts in STF3a cells; assay: Real-time qPCR of β-catenin target genes in STF3a cells; format: cell-based; details: 24 h
ERK4 = target: T7, ERK4 (Homo sapiens, UniProt P31152); assay: KINOMEscan panel screen; format: binding; details: read-out: Percent Control(%)
T7 construct: purchased DiscoveRx KINOMEscan (Ambit Biosciences)

VEGFR2 = target: T8, VEGFR2 (Homo sapiens, UniProt P35968); assay: KINOMEscan kinase binding assay (Kd)
T8 construct: DNA tag (qPCR read-out); purchased Ambit Biosciences (KINOMEscan service)
T8 sequence (P35968 20-1356): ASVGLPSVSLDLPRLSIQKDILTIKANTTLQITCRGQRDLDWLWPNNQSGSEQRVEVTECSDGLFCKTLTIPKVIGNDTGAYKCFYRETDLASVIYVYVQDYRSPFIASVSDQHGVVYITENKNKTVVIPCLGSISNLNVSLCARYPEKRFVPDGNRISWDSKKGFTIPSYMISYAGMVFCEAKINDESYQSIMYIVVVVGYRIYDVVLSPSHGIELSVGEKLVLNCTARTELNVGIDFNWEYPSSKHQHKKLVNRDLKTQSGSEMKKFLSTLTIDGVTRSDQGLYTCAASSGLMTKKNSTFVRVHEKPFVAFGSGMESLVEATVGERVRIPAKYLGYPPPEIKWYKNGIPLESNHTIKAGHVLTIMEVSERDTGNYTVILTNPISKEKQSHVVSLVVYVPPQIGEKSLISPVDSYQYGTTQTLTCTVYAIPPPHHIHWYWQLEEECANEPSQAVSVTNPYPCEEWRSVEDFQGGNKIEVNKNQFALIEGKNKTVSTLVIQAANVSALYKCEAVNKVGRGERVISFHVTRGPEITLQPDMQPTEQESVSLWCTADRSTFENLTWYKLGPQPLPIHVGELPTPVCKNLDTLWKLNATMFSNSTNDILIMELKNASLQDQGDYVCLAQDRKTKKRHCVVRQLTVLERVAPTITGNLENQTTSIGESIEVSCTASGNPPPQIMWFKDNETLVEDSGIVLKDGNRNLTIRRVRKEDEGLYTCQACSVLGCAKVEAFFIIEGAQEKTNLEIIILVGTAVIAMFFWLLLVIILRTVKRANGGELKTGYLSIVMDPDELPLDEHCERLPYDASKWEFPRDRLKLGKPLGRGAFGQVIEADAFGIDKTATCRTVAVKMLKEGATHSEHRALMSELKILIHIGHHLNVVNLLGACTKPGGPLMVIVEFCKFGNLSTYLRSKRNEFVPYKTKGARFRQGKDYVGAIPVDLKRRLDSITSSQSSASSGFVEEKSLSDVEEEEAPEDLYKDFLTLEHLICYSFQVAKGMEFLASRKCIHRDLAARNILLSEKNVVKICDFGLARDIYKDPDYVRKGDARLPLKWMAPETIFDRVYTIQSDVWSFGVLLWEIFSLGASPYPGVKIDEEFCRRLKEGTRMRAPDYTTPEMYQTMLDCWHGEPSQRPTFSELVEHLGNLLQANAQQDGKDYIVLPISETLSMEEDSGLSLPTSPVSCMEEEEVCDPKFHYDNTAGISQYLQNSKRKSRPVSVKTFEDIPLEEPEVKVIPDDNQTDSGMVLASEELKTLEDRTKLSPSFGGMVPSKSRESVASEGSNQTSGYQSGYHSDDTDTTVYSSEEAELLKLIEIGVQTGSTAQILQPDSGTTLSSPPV

SYK = target: T9, SYK (Homo sapiens, UniProt P43405); assay: KINOMEscan panel screen; format: binding; details: read-out: Percent Control(%)
T9 construct: purchased DiscoveRx KINOMEscan (Ambit Biosciences)

MAK = target: T10, MAK (Homo sapiens, UniProt P20794); assay: KINOMEscan panel screen; format: binding; details: read-out: Percent Control(%)
T10 construct: purchased DiscoveRx KINOMEscan (Ambit Biosciences)
T10 sequence (P20794 whole entry): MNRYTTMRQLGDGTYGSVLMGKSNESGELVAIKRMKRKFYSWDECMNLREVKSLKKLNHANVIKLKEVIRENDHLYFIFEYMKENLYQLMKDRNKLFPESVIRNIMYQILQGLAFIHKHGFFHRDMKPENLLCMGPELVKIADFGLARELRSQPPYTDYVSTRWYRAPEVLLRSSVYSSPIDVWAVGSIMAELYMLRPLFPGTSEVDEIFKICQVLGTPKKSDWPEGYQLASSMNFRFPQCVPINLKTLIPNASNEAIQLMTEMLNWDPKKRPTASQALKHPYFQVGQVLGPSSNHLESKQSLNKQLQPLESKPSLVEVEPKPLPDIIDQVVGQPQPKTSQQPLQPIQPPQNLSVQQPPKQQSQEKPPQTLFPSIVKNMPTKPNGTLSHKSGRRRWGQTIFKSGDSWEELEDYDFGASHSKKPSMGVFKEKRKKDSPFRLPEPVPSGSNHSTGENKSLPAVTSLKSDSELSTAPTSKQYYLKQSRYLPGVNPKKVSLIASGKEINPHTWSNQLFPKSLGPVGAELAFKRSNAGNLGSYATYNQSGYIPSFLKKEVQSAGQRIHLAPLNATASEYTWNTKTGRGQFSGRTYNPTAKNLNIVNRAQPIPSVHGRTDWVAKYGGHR

TNK2 = target: T11, TNK2 (Homo sapiens, UniProt Q07912); assay: KINOMEscan panel screen; format: binding; details: read-out: Percent Control(%)
T11 construct: purchased DiscoveRx KINOMEscan (Ambit Biosciences)
T11 sequence (Q07912 whole entry): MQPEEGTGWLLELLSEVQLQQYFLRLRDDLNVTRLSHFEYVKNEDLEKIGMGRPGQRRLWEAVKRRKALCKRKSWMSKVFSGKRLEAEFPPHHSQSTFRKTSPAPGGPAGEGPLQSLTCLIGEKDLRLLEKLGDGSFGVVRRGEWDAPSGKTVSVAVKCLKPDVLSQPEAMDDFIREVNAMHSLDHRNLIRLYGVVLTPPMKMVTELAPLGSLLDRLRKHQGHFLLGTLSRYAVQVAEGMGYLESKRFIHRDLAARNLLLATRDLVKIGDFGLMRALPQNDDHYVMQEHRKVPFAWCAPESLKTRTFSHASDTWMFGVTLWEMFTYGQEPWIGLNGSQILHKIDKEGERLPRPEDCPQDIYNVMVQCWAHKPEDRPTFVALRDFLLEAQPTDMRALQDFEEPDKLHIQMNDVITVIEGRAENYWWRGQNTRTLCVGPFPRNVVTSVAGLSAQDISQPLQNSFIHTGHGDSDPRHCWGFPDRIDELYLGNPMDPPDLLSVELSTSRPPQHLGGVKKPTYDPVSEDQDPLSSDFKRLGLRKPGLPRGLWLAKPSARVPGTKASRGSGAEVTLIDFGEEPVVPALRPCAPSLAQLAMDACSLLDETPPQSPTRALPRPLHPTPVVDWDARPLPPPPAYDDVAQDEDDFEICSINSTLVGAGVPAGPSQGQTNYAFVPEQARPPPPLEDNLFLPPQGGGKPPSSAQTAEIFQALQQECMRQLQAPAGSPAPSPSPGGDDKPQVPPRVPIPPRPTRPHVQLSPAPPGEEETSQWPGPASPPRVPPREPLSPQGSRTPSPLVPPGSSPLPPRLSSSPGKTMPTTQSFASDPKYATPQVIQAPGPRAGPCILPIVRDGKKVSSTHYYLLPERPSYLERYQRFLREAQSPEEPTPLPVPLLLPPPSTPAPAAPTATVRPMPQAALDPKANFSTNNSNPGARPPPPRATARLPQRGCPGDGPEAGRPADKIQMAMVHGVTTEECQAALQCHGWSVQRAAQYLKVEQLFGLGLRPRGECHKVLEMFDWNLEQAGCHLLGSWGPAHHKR

ERBB4 = target: T12, ERBB4 (Homo sapiens, UniProt Q15303); assay: KINOMEscan panel screen; format: binding; details: read-out: Percent Control(%)
T12 construct: purchased DiscoveRx KINOMEscan (Ambit Biosciences)

FLT3-D835H = FLT3-D835H (Homo sapiens, UniProt P36888, D835H); assay: KINOMEscan kinase binding assay (Kd); set-up: purchased Ambit Biosciences (KINOMEscan)
EPHB4 = target: T13, EPHB4 (Homo sapiens, UniProt P54760); assay: KINOMEscan panel screen; format: binding; details: read-out: Percent Control(%)
T13 construct: purchased DiscoveRx KINOMEscan (Ambit Biosciences)

CAMKK2 = target: T14, CAMKK2 (Homo sapiens, UniProt Q96RR4); assay: KINOMEscan panel screen; format: binding; details: read-out: Percent Control(%)
T14 construct: purchased DiscoveRx KINOMEscan (Ambit Biosciences)

PFTAIRE2 = target: T15, PFTAIRE2 (Homo sapiens, UniProt Q96Q40); assay: KINOMEscan panel screen; format: binding; details: read-out: Percent Control(%)
T15 construct: purchased DiscoveRx KINOMEscan (Ambit Biosciences)

MYLK4 = target: T16, MYLK4 (Homo sapiens, UniProt Q86YV6); assay: KINOMEscan panel screen; format: binding; details: read-out: Percent Control(%)
T16 construct: purchased DiscoveRx KINOMEscan (Ambit Biosciences)
T16 sequence (Q86YV6 whole entry): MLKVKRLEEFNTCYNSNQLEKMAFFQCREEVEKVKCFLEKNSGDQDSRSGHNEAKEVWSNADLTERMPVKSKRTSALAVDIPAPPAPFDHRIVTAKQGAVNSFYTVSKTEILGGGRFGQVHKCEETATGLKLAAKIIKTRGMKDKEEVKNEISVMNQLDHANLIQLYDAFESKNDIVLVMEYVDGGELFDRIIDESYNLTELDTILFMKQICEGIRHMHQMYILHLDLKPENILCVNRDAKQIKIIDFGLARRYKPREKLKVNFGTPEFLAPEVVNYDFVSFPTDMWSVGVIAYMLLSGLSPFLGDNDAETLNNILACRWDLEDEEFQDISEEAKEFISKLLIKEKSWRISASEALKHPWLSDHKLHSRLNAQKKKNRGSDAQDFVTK

SIK = target: T17, SIK (Homo sapiens, UniProt P57059); assay: KINOMEscan panel screen; format: binding; details: read-out: Percent Control(%)
T17 construct: purchased DiscoveRx KINOMEscan (Ambit Biosciences)

PRKX = target: T18, PRKX (Homo sapiens, UniProt P51817); assay: KINOMEscan panel screen; format: binding; details: read-out: Percent Control(%)
T18 construct: purchased DiscoveRx KINOMEscan (Ambit Biosciences)
T18 sequence (P51817 whole entry): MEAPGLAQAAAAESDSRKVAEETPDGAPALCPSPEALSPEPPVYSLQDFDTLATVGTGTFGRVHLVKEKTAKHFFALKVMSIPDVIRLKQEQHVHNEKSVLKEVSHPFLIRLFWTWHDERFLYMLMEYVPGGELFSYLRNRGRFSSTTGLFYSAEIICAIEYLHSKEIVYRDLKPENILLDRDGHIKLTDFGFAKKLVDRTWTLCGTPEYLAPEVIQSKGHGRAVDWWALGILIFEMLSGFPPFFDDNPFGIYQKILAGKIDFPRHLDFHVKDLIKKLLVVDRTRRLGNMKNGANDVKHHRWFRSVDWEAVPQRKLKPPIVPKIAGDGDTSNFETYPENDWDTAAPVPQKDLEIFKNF

KIT(D816H) = target: T19, KIT(D816H) (Homo sapiens, UniProt P10721, D816H); assay: KINOMEscan panel screen; format: binding; details: read-out: Percent Control(%)
T19 construct: purchased DiscoveRx KINOMEscan (Ambit Biosciences)

PFTK1 = target: T20, PFTK1 (Homo sapiens, UniProt O94921); assay: KINOMEscan panel screen; format: binding; details: read-out: Percent Control(%)
T20 construct: purchased DiscoveRx KINOMEscan (Ambit Biosciences)

PIK3CG = target: T21, PIK3CG (Homo sapiens, UniProt P48736); assay: KINOMEscan panel screen; format: binding; details: read-out: Percent Control(%)
T21 construct: purchased DiscoveRx KINOMEscan (Ambit Biosciences)

HIPK2 = target: T22, HIPK2 (Homo sapiens, UniProt Q9H2X6); assay: KINOMEscan panel screen; format: binding; details: read-out: Percent Control(%)
T22 construct: purchased DiscoveRx KINOMEscan (Ambit Biosciences)

SRC = target: T23, SRC (Homo sapiens, UniProt P12931); assay: KINOMEscan panel screen; format: binding; details: read-out: Percent Control(%)
T23 construct: purchased DiscoveRx KINOMEscan (Ambit Biosciences)

PLK2 = target: T24, PLK2 (Homo sapiens, UniProt Q9NYY3); assay: KINOMEscan kinase binding assay (Kd)
T24 construct: purchased DiscoveRx KINOMEscan (Ambit Biosciences)
T24 sequence (Q9NYY3 whole entry): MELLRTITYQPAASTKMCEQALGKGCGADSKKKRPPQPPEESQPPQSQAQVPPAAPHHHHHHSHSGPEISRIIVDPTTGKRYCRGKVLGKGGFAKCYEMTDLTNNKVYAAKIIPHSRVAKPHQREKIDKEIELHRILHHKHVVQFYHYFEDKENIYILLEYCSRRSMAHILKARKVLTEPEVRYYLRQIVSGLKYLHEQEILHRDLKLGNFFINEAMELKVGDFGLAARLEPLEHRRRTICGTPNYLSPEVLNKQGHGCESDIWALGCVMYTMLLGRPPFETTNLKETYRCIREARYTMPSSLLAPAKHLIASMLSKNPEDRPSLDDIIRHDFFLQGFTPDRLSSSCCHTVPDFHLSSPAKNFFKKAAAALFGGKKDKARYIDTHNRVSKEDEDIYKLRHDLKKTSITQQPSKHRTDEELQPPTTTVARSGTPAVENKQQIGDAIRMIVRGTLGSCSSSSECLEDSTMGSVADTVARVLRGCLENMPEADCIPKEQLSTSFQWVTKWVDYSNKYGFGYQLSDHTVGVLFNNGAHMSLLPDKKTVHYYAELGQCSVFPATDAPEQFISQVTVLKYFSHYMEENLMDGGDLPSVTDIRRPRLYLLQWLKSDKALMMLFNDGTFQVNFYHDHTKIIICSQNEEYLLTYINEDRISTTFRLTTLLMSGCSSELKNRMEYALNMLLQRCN

CDK5 = target: T25, CDK5 (Homo sapiens, UniProt Q00535); assay: KINOMEscan panel screen; format: binding; details: read-out: Percent Control(%)
T25 construct: purchased DiscoveRx KINOMEscan (Ambit Biosciences)

JNK2 = target: T26, JNK2 (Homo sapiens, UniProt P45984); assay: KINOMEscan panel screen; format: binding; details: read-out: Percent Control(%)
T26 construct: purchased DiscoveRx KINOMEscan (Ambit Biosciences)
T26 sequence (P45984 whole entry): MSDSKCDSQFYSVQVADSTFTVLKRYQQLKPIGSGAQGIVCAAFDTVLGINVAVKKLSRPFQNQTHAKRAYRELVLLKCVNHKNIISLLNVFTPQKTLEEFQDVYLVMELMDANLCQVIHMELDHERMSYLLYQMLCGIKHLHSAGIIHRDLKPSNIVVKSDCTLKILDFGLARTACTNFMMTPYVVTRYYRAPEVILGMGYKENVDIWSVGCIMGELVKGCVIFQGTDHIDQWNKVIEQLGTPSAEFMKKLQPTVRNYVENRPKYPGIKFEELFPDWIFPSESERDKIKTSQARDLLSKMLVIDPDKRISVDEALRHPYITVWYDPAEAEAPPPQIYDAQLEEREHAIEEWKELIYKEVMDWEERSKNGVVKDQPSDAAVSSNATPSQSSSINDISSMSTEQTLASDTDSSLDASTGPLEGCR

MINK = target: T27, MINK (Homo sapiens, UniProt Q8N4C8); assay: KINOMEscan panel screen; format: binding; details: read-out: Percent Control(%)
T27 construct: purchased DiscoveRx KINOMEscan (Ambit Biosciences)

FGFR1 = target: T28, FGFR1 (Homo sapiens, UniProt P11362); assay: KINOMEscan kinase binding assay (Kd)
T28 construct: purchased DiscoveRx KINOMEscan (Ambit Biosciences)

[5] = target: T29, RPS6KA4(Kin.Dom.2-C-terminal) (Homo sapiens, UniProt O75676); assay: KINOMEscan panel screen; format: binding; details: read-out: Percent Control(%)
T29 construct: RPS6KA4(Kin.Dom.2-C-terminal); purchased DiscoveRx KINOMEscan (Ambit Biosciences)

[6] = target: T30, RSK3(Kin.Dom.2-C-terminal) (Homo sapiens, UniProt Q15349); assay: KINOMEscan panel screen; format: binding; details: read-out: Percent Control(%)
T30 construct: RSK3(Kin.Dom.2-C-terminal); purchased DiscoveRx KINOMEscan (Ambit Biosciences)

O=C(Nc1ccc(Oc2ncnc3[nH]ncc23)cc1)Nc1ccc(Cl)c(C(F)(F)F)c1 [Compound 1, 1-(4-(1H-pyrazolo[3,4-d]pyrimidin-4-yloxy)phenyl)-3-(4-chloro-3-(trifluoromethyl)phenyl)urea]
IC50 (PAK2): > 10000 nM

CC(C)(C)c1cc(NC(=O)Nc2ccc(Oc3ncnc4[nH]ncc34)c(F)c2)no1 [SKLB-677, 1-(4-(1H-pyrazolo[3,4-d]pyrimidin-4-yloxy)-3-fluorophenyl)-3-(5-tert-butylisoxazol-3-yl)urea]
remaining binding at 10 µM (SLK): 0.2% | remaining binding at 10 µM [1]: 2.2% | remaining binding at 10 µM (VRK2): 100% | remaining binding at 10 µM (ULK2): 97% | concentration at which activation of STAT5 and Erk1/2 was efficiently inhibited [2]: higher than 1 nM | IC50 ([2]; Homo sapiens, read-out: IC50, reduction in the phosphorylation level of FLT3): ~0.1 nM | IC50 (B16): > 10000 nM | expression of β-catenin target genes [3]: considerably decrease | remaining binding at 10 µM (ANKK1): 57% | MYC, CCND1, and NKD1 transcripts [4]: reduced | remaining binding at 10 µM (ERK4): 98% | Kd (VEGFR2): 11 nM | remaining binding at 10 µM (SYK): 25% | remaining binding at 10 µM (MAK): 21% | remaining binding at 10 µM (TNK2): 37% | remaining binding at 10 µM (ERBB4): 81% | Kd (FLT3-D835H): 0.74 nM | remaining binding at 10 µM (EPHB4): 1% | remaining binding at 10 µM (CAMKK2): 30% | remaining binding at 10 µM (PFTAIRE2): 0.85% | remaining binding at 10 µM (MYLK4): 78% | remaining binding at 10 µM (SIK): 97% | remaining binding at 10 µM (PRKX): 44% | remaining binding at 10 µM (KIT(D816H)): 8.4% | remaining binding at 10 µM (PFTK1): 0.05% | remaining binding at 10 µM (PIK3CG): 100% | remaining binding at 10 µM (HIPK2): 4.4% | remaining binding at 10 µM (SRC): 9.2% | Kd (PLK2): > 10000 nM | remaining binding at 10 µM (CDK5): 4.2% | remaining binding at 10 µM (JNK2): 2% | remaining binding at 10 µM (MINK): 2.3% | Kd (FGFR1): 600 nM | remaining binding at 10 µM [5]: 78% | remaining binding at 10 µM [6]: 19%
